Experiments:
PRK [1] = conditions: Kuwahara et al., 1999; Kondoh et al., 1997; not specific for PRK, also block ROCK; cited from earlier work
PRK [2] = experiment: Western blot analysis of PRK phosphorylation status in left ventricular tissue after isoproterenol infusion; type: in vivo; conditions: rat, 4 days of isoproterenol infusion compared to control saline infusion; anti-phospho-PRK Western blot; *P<0.05
Description: (§1) For isoproterenol infusion, nine to ten-week-old male Sprague-Dawley rats were anesthetized via passive inhalation of 2.0% isoflurane. When a level of surgical anesthesia was reached, an osmotic minipump (Alzet model 2001, Alza Corp., Palo Alto Calif.) containing either vehicle (0.1% ascorbic acid in 0.9% NaCl), or isoproterenol (4.8 mg/kg/d) was subcutaneously implanted into the back between the scapulae followed by closure with 3-0 silk sutures. After 4 days of recovery, animals were sacrificed and left ventricular tissue processed for Western blot analysis as described below. Average heart weight to body weight ratios in isoproterenol versus vehicle-infused rats increased 48% (data not shown).
Immunoblotting analyses. […] Protein concentration was determined by BCA assay (Pierce), and 20 μg of total protein was resolved by SDS-polyacrylamide gel electrophoresis (PAGE) with gradient gels (4 to 20% polyacrylamide; Invitrogen). […] Film images were then scanned and quantified using a digital image analysis system (Alpha Innotech).
PRK phosphorylation is increased with pathological cardiac hypertrophy in vivo. […] PRK phosphorylation is readily detected by Western analysis employing anti-phospho-PRK antibodies.

[3] = Isoproterenol infusion model of pathological cardiac hypertrophy, heart weight to body weight ratio; type: in vivo, Sprague-Dawley rats; conditions: isoproterenol 4.8 mg/kg/d, subcutaneous osmotic minipump, 4 days; data not shown
Description: as §1

Structure (SMILES): O=S(=O)(c1cccc2cnccc12)N1CCCNCC1 [Fasudil]
- PRK inhibition (known inhibitor) (PRK [1]): characterized as PRK inhibitors

Structure (SMILES): C[C@@H](N)[C@H]1CC[C@H](C(=O)Nc2ccncc2)CC1 [Y27632]
- PRK inhibition (known inhibitor) (PRK [1]): characterized as PRK inhibitors

Structure (SMILES): CC(C)NCC(O)c1ccc(O)c(O)c1 (stereo not shown) [isoproterenol]
- PRK phosphorylation (PRK [2]): increased
- Average heart weight to body weight ratios, increase versus vehicle-infused rats [3]: 48%

From patent publication US20050283841A1, “Inhibition of protein kinase C-related kinase (PRK) as a treatment for cardiac hypertrophy and heart failure” (priority 2004, published 2005)
